Measurements reported in US10975093B2, “Fused 1,4-diazepines as BET protein degraders” (THE REGENTS OF THE UNIVERSITY OF MICHIGAN, priority 2016, dated 2021).
Values belong to the compound of their own block, whether it stands above or below them.

What was measured:
MDA-MB-231 = assay: Cell growth inhibition, CellTiter-Glo Luminescent Cell Viability Assay, MDA-MB-231; assay type: cell-based; details: Homo sapiens, MDA-MB-231 cells, 4 days incubation
Experimental: (§1) Cell growth inhibitory activity of representative Compounds of the Disclosure was determined in various cell lines using CellTiter-Glo® Luminescent Cell Viability Assay. Cells were seeded in 384-well white opaque cell culture plates at a density of 2,000 cells/well with serially diluted compounds and incubated at 37° C. in an atmosphere of 95% air and 5% CO2 for 4 days. Cell viability was determined using the CellTiter-Glo® Luminescent Cell Viability Assay Kit (Promega, Madison, Wis.) according to the manufacture's instruction. Briefly, a volume of CellTiter-Glo® Reagent equal to the volume of cell culture medium was added to each well, and then the plates were incubated at room temperature for 10-20 minutes. The luminescent signal was measured using a Tecan Infinite M1000 multimode microplate reader (Tecan, Morrisville, N.C.). The half maximal inhibitory concentration (IC50) was calculated using the GraphPad Prism 5 software (GraphPad Software, La Jolla, Calif.).

MOLM-13 = assay: Cell growth inhibition, CellTiter-Glo Luminescent Cell Viability Assay, MOLM-13; assay type: cell-based; details: Homo sapiens, MOLM-13 cells, 4 days incubation
Experimental: as §1

SMILES: Cc1c(C#Cc2ccc(OCCC#Cc3cccc4c3CN(C3CCC(=O)NC3=O)C4=O)cn2)sc2c1C(c1ccc(Cl)cc1)=NCc1nnc(C)n1-2 (stereo not drawn) [Cpd. No. 15, 3-(4-(4-((6-((4-(4-chlorophenyl)-3,9-dimethyl-6H-thieno[3,2-f][1,2,4]triazolo[4,3-a][1,4]diazepin-2-yl)ethynyl)pyridin-3-yl)oxy)but-1-yn-1-yl)-1-oxoisoindolin-2-yl)piperidine-2,6-dione]
- IC50 (MDA-MB-231; 96 h): 39.1 nM
- IC50 (MOLM-13; 96 h): 82.6 nM

SMILES: Cc1c(C#Cc2ccc(OCCC#Cc3cccc4c3CN(C3CCC(=O)NC3=O)C4=O)cn2)sc2c1C(c1ccc(Cl)cc1)=N[C@@H](C)c1nnc(C)n1-2 (stereo partly drawn) [Cpd. No. 16, 3-(4-(4-((6-(((S)-4-(4-chlorophenyl)-3,6,9-trimethyl-6H-thieno[3,2-f][1,2,4]triazolo[4,3-a][1,4]diazepin-2-yl)ethynyl)pyridin-3-yl)oxy)but-1-yn-1-yl)-1-oxoisoindolin-2-yl)piperidine-2,6-dione]
- IC50 (MDA-MB-231; MDA-MB-231, 96 h): 1.7 nM
- IC50 (MOLM-13; MOLM-13, 96 h): 1.1 nM

SMILES: Cc1c(C#Cc2ccc(CCCCNc3cccc4c3CN(C3CCC(=O)NC3=O)C4=O)nc2)sc2c1C(c1ccc(Cl)cc1)=NCc1nnc(C)n1-2 (stereo not drawn) [Cpd. No. 17, 3-(4-((4-(5-((4-(4-chlorophenyl)-3,9-dimethyl-6H-thieno[3,2-f][1,2,4]triazolo[4,3-a][1,4]diazepin-2-yl)ethynyl)pyridin-2-yl)butyl)amino)-1-oxoisoindolin-2-yl)piperidine-2,6-dione]
- IC50 (MDA-MB-231; MDA-MB-231, 96 h): 11.1 nM
- IC50 (MOLM-13; MOLM-13, 96 h): 10.3 nM

SMILES: Cc1c(C#Cc2ccc(CCCCNc3cccc4c3CN(C3CCC(=O)NC3=O)C4=O)nc2)sc2c1C(c1ccc(Cl)cc1)=N[C@@H](C)c1nnc(C)n1-2 (stereo partly drawn) [Cpd. No. 18, 3-(4-((4-(5-(((S)-4-(4-chlorophenyl)-3,6,9-trimethyl-6H-thieno[3,2-f][1,2,4]triazolo[4,3-a][1,4]diazepin-2-yl)ethynyl)pyridin-2-yl)butyl)amino)-1-oxoisoindolin-2-yl)piperidine-2,6-dione]
- IC50 (MDA-MB-231; MDA-MB-231, 96 h): 0.43 nM
- IC50 (MOLM-13; MOLM-13, 96 h): 0.23 nM

SMILES: Cc1c(C#Cc2cnn(CCCN3CC(Nc4cccc5c4CN(C4CCC(=O)NC4=O)C5=O)C3)c2)sc2c1C(c1ccc(Cl)cc1)=N[C@@H](C)c1nnc(C)n1-2 (stereo partly drawn) [compound 177, 3-(4-((1-(3-(4-(((S)-4-(4-chlorophenyl)-3,6,9-trimethyl-6H-thieno[3,2-f][1,2,4]triazolo[4,3-a][1,4]diazepin-2-yl)ethynyl)-1H-pyrazol-1-yl)propyl)azetidin-3-yl)amino)-1-oxoisoindolin-2-yl)piperidine-2,6-dione]
- IC50 (MOLM-13; MOLM-13, 96 h): 0.6 nM

Second part, the compound after the results:

- IC50 (MDA-MB-231; MDA-MB-231, 96 h): 1.7 nM
SMILES: Cc1c(C#Cc2cnn(CCOCCOCCNc3cccc4c3CN(C3CCC(=O)NC3=O)C4=O)c2)sc2c1C(c1ccc(Cl)cc1)=N[C@@H](C)c1nnc(C)n1-2 (stereo partly drawn) [compound 188, 3-(4-((2-(2-(2-(4-(((S)-4-(4-chlorophenyl)-3,6,9-trimethyl-6H-thieno[3,2-f][1,2,4]triazolo[4,3-a][1,4]diazepin-2-yl)ethynyl)-1H-pyrazol-1-yl)ethoxy)ethoxy)ethyl)amino)-1-oxoisoindolin-2-yl)piperidine-2,6-dione]

- IC50 (MOLM-13; MOLM-13, 96 h): 91.6 nM
SMILES: Cc1ncsc1-c1ccc([C@H](C)NC(=O)[C@@H]2COCCN2C(=O)[C@@H](NC(=O)COCCCn2cc(C#Cc3sc4c(c3C)C(c3ccc(Cl)cc3)=N[C@@H](C)c3nnc(C)n3-4)cn2)C(C)(C)C)cc1 [compound 202, (S)-4-((S)-2-(2-(3-(4-(((S)-4-(4-chlorophenyl)-3,6,9-trimethyl-6H-thieno[3,2-f][1,2,4]triazolo[4,3-a][1,4]diazepin-2-yl)ethynyl)-1H-pyrazol-1-yl)propoxy)acetamido)-3,3-dimethylbutanoyl)-N-((S)-1-(4-(4-methylthiazol-5-yl)phenyl)ethyl)morpholine-3-carboxamide]

- IC50 (MDA-MB-231; MDA-MB-231, 96 h): 37.5 nM
SMILES: Cc1ncsc1-c1ccc([C@H](C)NC(=O)[C@@H]2C[C@@H](F)CN2C(=O)[C@@H](NC(=O)COCCCn2cc(C#Cc3sc4c(c3C)C(c3ccc(Cl)cc3)=N[C@@H](C)c3nnc(C)n3-4)cn2)C(C)(C)C)cc1 [compound 203]
